Like-named read-outs stand apart in the source and are kept apart here.

Broadly, the Ki is a dissociation constant, usually derived from enzyme kinetics or from competition with a known ligand. As a reminder, the half-life is the time in which the quantity being followed falls by half.

For series [1], the target named is CB1 receptor (Rattus norvegicus (Rat), UniProt P20272). Put plainly: rCB1 competition-equilibrium binding with [3H]CP-55,940, rat brain membranes. As for the experimental part: Frozen rat brains (CB1 source) are obtained from Pel-Freeze Biologicals (Rogers, Ak.) and stored at −80° C. until use. Membranes are prepared according to the method described by Dodd et al. and used in our laboratory as reported.
(§1) All the cannabinoids discussed in this invention are tested for their ability to bind to CB1 and CB2 receptors using membranes from rat brain or HEK293 cells expressing either mCB2 or hCB2, respectively via competition-equilibrium binding using [^3H]CP-55,940. Results are analyzed using nonlinear regression to determine ligand IC50 (Prism by GraphPad Software, Inc.), and Ki values are calculated from the IC50. IC50 and Ki values are determined from at least three independent experiments.

Series [2] is described as follows: Stability in plasma (half-life). The format is in vitro ADME, rat or monkey. Particulars: method: 200 μM in plasma, 37°; species of plasma not given. The method, then:
The designed compounds carry a side chain that is susceptible to plasma esterase activity, inviting their rapid deactivation. Thus, it is important to characterize the rate of compound metabolism in isolated rat or monkey plasma. As a preliminary predictor of oral stability, this assay will also be done in buffers at pH 2 (to emulate the stomach) and pH 7.4 (physiological pH). Compounds (10 mM in DMSO) are diluted in plasma, acetonitrile or buffer to a concentration of 200 μM and incubated in a 37° shaking water bath for 2 hours. Samples are taken periodically, diluted 1:4 with acetonitrile and centrifuged to precipitate protein. The resulting supernatant is analyzed by HPLC to predict expected in vivo plasma half-lives.

The target of series [3] is hCB2 receptor (Homo sapiens (Human), UniProt P34972). Kind of series: hCB2 competition-equilibrium binding with [3H]CP-55,940, membranes of HEK293 cells expressing hCB2. The method, then:
(§2) HEK293 cells expressing hCB1 or hCB2 or mCB2 receptor are used for membrane preparations according to Abadji et al. The resulting pellet is resuspended in 10 mM Tris-chloride, pH 7.4, with 5 mM MgCl2 and 2 mM EDTA (TME), rapidly frozen in liquid nitrogen and stored at −80° C. for no longer than two months. Protein content is assayed by using the Bio-Rad protein assay according to the manufacturer's protocol.
as §1

Series [4] has as its target mCB2 receptor (Mus musculus (Mouse), UniProt P47936). Kind of series: mCB2 competition-equilibrium binding with [3H]CP-55,940, membranes of HEK293 cells expressing mCB2. The method, then: as §2, §1
[5] abbreviates: rat brain membranes, [3H]CP-55,940, read-out: rCB1 Ki.
Setting [6] is: HEK293 cells expressing hCB2, [3H]CP-55,940, read-out: hCB2 Ki.
[7] abbreviates: HEK293 cells expressing mCB2, [3H]CP-55,940, read-out: mCB2 Ki.

For `CCCCOC(=O)[C@@H](C)c1cc(O)c2c(c1)OC(C)(C)[C@@H]1CC=C(C)C[C@@H]21` [Compound 1.16, (S)-butyl 2-((6aR,10aR)-1-hydroxy-6,6,9-trimethyl-6a,7,10,10a-tetrahydro-6H-benzo[c]chromen-3-yl)propanoate], the Ki was 2.4 nM in series [1] (setting [5]), 1.5 nM in series [3] (setting [6]) and 1.3 nM in series [4] (setting [7]). The compound further yielded a half-life at 200 μM in series [2] of 6 min.
For the compound `CC1=CC[C@@H]2[C@@H](C1)c1c(O)cc(CC(=O)OCCCCC#N)cc1OC2(C)C` [Compound 1.28, 4-cyanobutyl-2-((6aR,10aR)-6a,7,10,10a-tetrahydro-1-hydroxy-6,6,9-trimethyl-6H-benzo[c]chromen-3-yl)acetate], the Ki was determined as 14.3 nM in series [1] (setting [5]), 1.2 nM in series [3] (setting [6]) and 2.1 nM in series [4] (setting [7]). In series [2], the half-life at 200 μM was 4.8 min.
In the case of `CC1=CC[C@@H]2[C@@H](C1)c1c(O)cc([C@H](C)C(=O)O)cc1OC2(C)C` [Compound 1.15, (S)-2-((6aR,10aR)-1-hydroxy-6,6,9-trimethyl-6a,7,10,10a-tetrahydro-6H-benzo[c]chromen-3-yl)propanoic Acid], the inhibition constant (Ki) in series [1] (setting [5]), in series [3] (setting [6]) and in series [4] (setting [7]) was more than 10000 nM throughout.
`CC1=CC[C@@H]2[C@@H](C1)c1c(O)cc(C(C)(C)C(=O)OCCBr)cc1OC2(C)C` [Compound 1.36, 2-bromoethyl-2-((6aR,10aR)-6a,7,10,10a-tetrahydro-1-hydroxy-6,6,9-trimethyl-6H-benzo [c]chromen-3-yl)-2-methylpropanoate]: the Ki in series [1] (setting [5]) was 2.9 nM; in series [3] (setting [6]), 7.7 nM; in series [4] (setting [7]), 3.2 nM.
The matching figures for `CC1=CC[C@@H]2[C@@H](C1)c1c(O)cc(C(C)(C)C(=O)OCCCN=[N+]=[N-])cc1OC2(C)C` [Compound 1.9, 3-azidopropyl-2-((6aR,10aR)-6a,7,10,10a-tetrahydro-1-hydroxy-6,6,9-trimethyl-6H-benzo[c]chromen-3-yl)-2-methylpropanoate]: 1 nM, 0.8 nM and 0.7 nM.
For `CCCCCCC(C)(C)c1cc(O)c2c(c1)OC(C)(C)[C@@H]1CCC(=O)OC[C@@H]21` [Compound 3.10, (5aR,11bR)-11-hydroxy-6,6-dimethyl-9-(2-methyloctan-2-yl)-4,5,5a,6-tetrahydro-1H-oxepino[4,3-c]chromen-3(11bH)-one], the half-life at 200 μM in series [2] was 15 min.
Consider `CCOC(=O)C(C)(C)c1cc(OC)c(-c2cc(C)cc(C)c2)c(OC)c1` [Compound 4.3, Ethyl 2-(2,6-dimethoxy-3′,5′-dimethylbiphenyl-4-yl)-2-methylpropanoate], for which the Ki in series [1] (setting [5]), in series [3] (setting [6]) and in series [4] (setting [7]) was 1000 nM throughout.
`CC1=CC[C@@H]2[C@@H](C1)c1c(O)cc(C3(C(=O)OCCCCN=[N+]=[N-])CCC3)cc1OC2(C)C` [Compound 1.21, 4-azidobutyl 1-((6aR,10aR)-1-hydroxy-6,6,9-trimethyl-6a,7,10,10a-tetrahydro-6H-benzo[c]chromen-3-yl)cyclo Butanecarboxylate]: the Ki in series [1] (setting [5]) was found to be 0.9 nM; in series [3] (setting [6]), 2.7 nM; in series [4] (setting [7]), 1.9 nM.
Regarding `CC1=CC[C@H]2[C@@H](C1)c1c(O)cc(C(C)(C)C(=O)O)cc1OC2(C)C` [Compound 1.1, 2-((6aS,10aR)-6a,7,10,10a-tetrahydro-1-hydroxy-6,6,9-trimethyl-6H-benzo[c]chromen-3-yl)-2-methylpropanoic Acid], the Ki in series [1], in series [3] and in series [4] was more than 10000 nM throughout.
Consider `CC(C)(C(=O)O)c1cc(O)c2c(c1)OC(C)(C)[C@@H]1CCC(=O)C[C@@H]21` [Compound 3.3, 2-((6aR,10aR)-6a,7,8,9,10,10a-hexahydro-1-hydroxy-6,6-dimethyl-9-oxo-6H-benzo[c]chromen-3-yl)-2-methylpropanoic Acid], for which the Ki in series [1] (setting [5]), in series [3] (setting [6]) and in series [4] (setting [7]) was more than 10000 nM in each case.
On to `CCCCCCC1(c2cc(O)c3c(c2)OC(C)(C)[C@@H]2CC=C(C)C[C@@H]32)CC(=O)O1` (stereo partly drawn) [Compound 1.23, 4-hexyl-4-((6aR,10aR)-1-hydroxy-6,6,9-trimethyl-6a,7,10,10a-tetrahydro-6H-benzo[c]chromen-3-yl)oxetan-2-one], for which the Ki in series [1] stood at 15.9 nM; in series [3], 55.5 nM; in series [4], 40.7 nM.
For `CC1=CCC2[C@@H](C1)c1c(O)cc(C(C)(C)C(=O)OCCCCC#N)cc1OC2(C)C` (stereo in doubt) [Compound 1.3, 4-cyanobutyl-2-((6aS, 10aR)-6a, 7, 10, 10a-tetrahydro-1-hydroxy-6,6,9-trimethyl-6H-benzo[c]chromen-3-yl)-2-methylpropanoate], the results for the Ki in series [1] (setting [5]) and in series [3] were 0.7 nM and 0.8 nM, respectively. This compound also showed a half-life at 200 μM in series [2] of 40 min.
`CC1=CC[C@@H]2[C@@H](C1)c1c(O)cc(C3(C(=O)O)CCC3)cc1OC2(C)C` [Compound 1.17, 1-((6aR,10aR)-1-hydroxy-6,6,9-trimethyl-6a,7,10,10a-tetrahydro-6H-benzo[c]chromen-3-yl)cyclobutanecarboxylic Acid]: the Ki in series [1] (setting [5]), in series [3] (setting [6]) and in series [4] (setting [7]) was more than 10000 nM throughout.
For `CCCCOC(=O)C(C)(C)c1cc(O)c2c(c1)OC(C)(C)[C@@H]1CCC(=O)C[C@@H]21` [Compound 3.4, Butyl-2-((6aR,10aR)-6a,7,8,9,10,10a-hexahydro-1-hydroxy-6,6-dimethyl-9-oxo-6H-benzo[c]chromen-3-yl)-2-methylpropanoate], the Ki worked out at 2.2 nM in series [1] (setting [5]), 6.2 nM in series [3] (setting [6]) and 7.2 nM in series [4] (setting [7]).
In the case of `CCOC(=O)C(C)(C)c1cc(O)c2c(c1)OC(C)(C)[C@@H]1CC=C(C)C[C@@H]21` [Compound 1.35, Ethyl-2-((6aR,10aR)-6a,7,10,10a-tetrahydro-1-hydroxy-6,6,9-trimethyl-6H-benzo[c]chromen-3-yl)-2-methylpropanoate], the Ki came to 2.7 nM in series [1] (setting [5]), 1.5 nM in series [3] (setting [6]) and 0.5 nM in series [4] (setting [7]).
On to `CCOC(=O)C(C)(C)c1cc(O)c(-c2cc(C)cc(C)c2)c(O)c1` [Compound 4.4, Ethyl 2-(2,6-dihydroxy-3′,5′-dimethylbiphenyl-4-yl)-2-methylpropanoate], for which the Ki in series [1] (setting [5]) worked out at 941 nM; in series [3] (setting [6]), 48.8 nM; in series [4] (setting [7]) it was 36 nM.
Consider `CCCCCNC(=O)C(C)(C)c1cc(O)c2c(c1)OC(C)(C)[C@@H]1CC=C(C)C[C@@H]21` [Compound 1.31, 2-((6aR,10aR)-6a,7,10,10a-tetrahydro-1-hydroxy-6,6,9-trimethyl-6H-benzo[c]chromen-3-yl)-2-methyl-N-pentylpropanamide], for which the Ki in series [1] (setting [5]) was determined as 6.3 nM; in series [3] (setting [6]), 2.8 nM; in series [4] (setting [7]), 9.2 nM.
The corresponding values for `CC1=CC[C@@H]2[C@@H](C1)c1c(O)cc(C(C)C(=O)O)cc1OC2(C)C` (stereo partly drawn) [Compound 1.11, 2-((6aR,10aR)-1-hydroxy-6,6,9-trimethyl-6a,7,10,10a-tetrahydro-6H-benzo[c]chromen-3-yl)propanoic acid] are more than 10000 nM, more than 10000 nM and more than 10000 nM.
As for `CC(C)(C(=O)O)c1cc(O)c2c(c1)OC(C)(C)[C@@H]1CC=C(CO)C[C@@H]21` [Compound 2.1, 2-((6aR, 10aR)-6a,7,10,10a-tetrahydro-1-hydroxy-9-(hydroxymethyl)-6,6-dimethyl-6H-benzo[c]chromen-3-yl)-2-methylpropanoic Acid], the inhibition constant (Ki) in series [1] (setting [5]), in series [3] (setting [6]) and in series [4] (setting [7]) was more than 10000 nM each time.
In the case of `CC(C)(C(=O)O)c1cc(O)c2c(c1)OC(C)(C)[C@@H]1CC[C@@H](O)C[C@@H]21` [Compound 3.5, 2-((6aR,9R,10aR)-6a,7,8,9,10,10a-hexahydro-1,9-dihydroxy-6,6-dimethyl-6H-benzo[c]chromen-3-yl)-2-methylpropanoic Acid], the Ki in series [1] (setting [5]), in series [3] (setting [6]) and in series [4] (setting [7]) was more than 10000 nM each time.
Take `CCOC(=O)C(C)(C)c1cc(OC)c(-c2cc(Cl)cc(Cl)c2)c(OC)c1` [Compound 4.6, Ethyl 2-(3′,5′-dichloro-2,6-dimethoxybiphenyl-4-yl)-2-methylpropanoate]: the Ki in series [1] (setting [5]), in series [3] (setting [6]) and in series [4] (setting [7]) was 1000 nM each time.

For the origin of these results see patent publication US10882838B2, “Cannabinergic compounds and uses thereof” (Northeastern University, priority 2012, dated 2021).
